Source: EP0354042A2, “Aminobenzoic-acid derivatives to reduce side effects induced by an administration of immuno-suppressant” (priority 1988, dated 1990)

Key:
[1] = Body weight of rats given CsA with the present substance; format: in vivo, Wistar male rats; settings: at completion of the test; CsA 25 mg/kg/day i.p. 3 weeks plus present substance 300 mg/kg/day orally
Experimental: (§1) Various clearance tests and a saccharide tolerance test were performed after completion of the administrations. Then, after sacrificing the rats, their blood was taken for serum biochemical and general blood tests.

[2] = test system: Wistar male rats; experiment: Kidney function (inulin clearance, serum creatinine) of rats given CsA with the present substance; format: in vivo; settings: CsA 25 mg/kg/day i.p. 3 weeks plus present substance 300 mg/kg/day orally
Experimental: as §1

[3] = test system: Bacillus subtilis H17; experiment: Mutagenicity Rec-assay, recombination repair proficient strain; settings: 16 hours at 37°C
Experimental: (§2) First, mutagenecity was studied with Rec-assay. […] The present substance was dissolved with sterlized water, 0.05 ml of the solution was absorbed by a round filter paper having a diameter of 8 mm and immediately the filter paper was laid on the medium (B-II agar) in a manner to cover each of the satrt point of the streak. Then, the mdium was cultured for 16 hours at a temperature of 37°C and measured growth inhibited area. Kanamycin was used as a negative control and mitomycin as a positive control.

[4] = test system: Bacillus subtilis M45; experiment: Mutagenicity Rec-assay, recombination repair deficient strain; settings: for Growth Inhibited Area M45: 16 hours at 37°C; for Growth Inhibited Area M45 - H17: difference between strains
Experimental: as §2

[5] = test system: TA100 of Salmonella typhimurium; experiment: Reversion assay (reversion colony test) TA100; format: cell-based; settings: 5,000 µg/disk, 37°C for 2 days; Drug-free Control 149
Experimental: (§3) In addition, a reversion assay was performed using TA98 and TA100 of Salmonella typhimurium (both are histidine-requiring bacteria).
(§4) 10% by volume of 0.5 mM bithion solution containing 0.5 mM histidine was added to a soft agar solution (prepared with 6g of NaCl, 6g of agar and 1,000 ml of distilled water). Then, 0.1 ml of a solution containing 1 x 10⁸ of the bacteria and 0.1 ml of a solution of the present substance were added to 2 ml of the soft agar solution, mixed well and obtained soft agar solution was multilayered on a minimal agar medium. The medium layered was cultured at 37°C for 2 days and number of reversion colonies was counted. Furylfuramide (AF2) was used as a positive control.

[6] = test system: Wistar male rats; experiment: Saccharide tolerance test (pancreas function) of rats given CsA with the present substance; format: in vivo; settings: CsA 25 mg/kg/day i.p. 3 weeks plus present substance 300 mg/kg/day orally
Experimental: as §1

[7] = test system: Jcl:ICR mice; experiment: Acute toxicity (LD50, Litchfield-Wilcoxon); format: in vivo; settings: observed 7 days; for LD₅₀ Value Intraperitoneal: in physiological saline solution; for LD₅₀ Value Oral: oral by stomach sonde, in distilled water
Experimental: The acute toxicity was studied with Jcl:ICR mice through intraperitoneal route and oral route. For intraperitoneal route, the present substance was dissolved in a physiological saline solution and a predetermined dose of the substance was administered with an injector to the cavity. For oral route, the present substance was dissolved in a distilled water and administered forcibly through a stomach sonde.
After the administration, observation of toxicopathic symptoms of the mice were continued for 7 days and based on time to time death rates of the mice, LD₅₀ values were calculated. Both surviving and dead mice were anatomized and observed certain organs.

[8] = test system: human lymphocyte; experiment: Mixed lymphocyte culture, 3H-thymidine uptake (proliferation of lymphocytes); format: cell-based; settings: CsA 0.1 µg/ml plus present substance 100 µg/ml, cultured 6 days;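 also: percent suppression of proliferation derived from uptake with CsA alone versus CsA plus substance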
Experimental: A mixture of 50 µl of human lymphocyte (1.6 x 10⁶/ml) with 50 µl of the lymphocytes treated with mitomycin C (MMC) (1.7 x 10⁶/ml) was cultured for 6 days and an uptake of ³H-thymidine, an index of proliferation of lymphocyte, was studied. The medium used for culture comprised bovine fetal serum (10% in quantity) and RPMI 1640 (90% in quantity). […] From the calculated ratio, the effects of the present substance on immuno function were studied.

[9] = test system: TA98 of Salmonella typhimurium; experiment: Reversion assay (reversion colony test) TA98; format: cell-based; settings: 5,000 µg/disk, 37°C for 2 days; Drug-free Control 13
Experimental: as §3, §4

[10] = test system: Wistar male rats; experiment: Serum biochemical test, total bilirubin (liver function) of rats given CsA with the present substance; format: in vivo; settings: CsA 25 mg/kg/day i.p. 3 weeks plus present substance 300 mg/kg/day orally
Experimental: as §1

## O=C(O)c1ccccc1NC1OC[C@@H](O)[C@H](O)[C@H]1O (stereo partly drawn) [Compound 8, o-Aminobenzoic acid-N-D-xyloside]
[1]
  Body Weight: 211 g
[2]
  Kidney Function Inulin Clearance: 1.72 mL/min
  Kidney Function Serum Creatinine: 0.65 mg/dL
[3]; 500 µg/disk
  Growth Inhibited Area H17: 0 mm
[3]; 5,000 µg/disk
  Growth Inhibited Area H17: 3 mm
[4]; 500 µg/disk
  Growth Inhibited Area M45: 0 mm
  Growth Inhibited Area M45 - H17: 0 mm
[4]; 5,000 µg/disk
  Growth Inhibited Area M45: 7 mm
  Growth Inhibited Area M45 - H17: 4 mm
[5]
  No. of Reversion Colony TA100: 166 n/plate
[6]
  Blood sugar value measured 10 minutes after the test: 605 mg/dL
  Insuline Value 10 Min.After The Test: 6.18 mµ/ml
  Insuline Value Before The Test: 4.21 mµ/ml
[7]
  LD₅₀ Value Intraperitoneal: 9270 mg/kg
  LD₅₀ Value Oral: 6350 mg/kg
[8]
  Depressing Ratio: 27%
[9]
  No. of Reversion Colony TA98: 4 n/plate
[10]
  TBI (seerum total bilirubin value): 0.38 mg/dL

## O=C(O)c1ccc(NC2OC[C@@H](O)[C@H](O)[C@H]2O)cc1 (stereo partly drawn) [Compound 6, p-Aminobenzoic acid-N-D-xyloside]
[1]
  Body Weight: 208 g
[2]
  Kidney Function Inulin Clearance: 1.70 mL/min
  Kidney Function Serum Creatinine: 0.66 mg/dL
[3]; 500 µg/disk
  Growth Inhibited Area H17: 0 mm
[3]; 5,000 µg/disk
  Growth Inhibited Area H17: 0 mm
[4]; 500 µg/disk
  Growth Inhibited Area M45: 0 mm
  Growth Inhibited Area M45 - H17: 0 mm
[4]; 5,000 µg/disk
  Growth Inhibited Area M45: 0 mm
  Growth Inhibited Area M45 - H17: 0 mm
[5]
  No. of Reversion Colony TA100: 58 n/plate
[6]
  Blood sugar value measured 10 minutes after the test: 598 mg/dL
  Insuline Value 10 Min.After The Test: 6.20 mµ/ml
  Insuline Value Before The Test: 4.28 mµ/ml
[7]
  LD₅₀ Value Intraperitoneal: 11040 mg/kg
  LD₅₀ Value Oral: 11750 mg/kg
[8]
  Depressing Ratio: 26%
[9]
  No. of Reversion Colony TA98: 4 n/plate
[10]
  TBI (seerum total bilirubin value): 0.35 mg/dL

## O=C([O-])c1ccccc1NC1O[C@H](CO)[C@H](O)[C@H](O)[C@H]1O.[Na+] (stereo partly drawn) [Compound 16, o-Aminobenzoic acid-N-D-galactoside]
[1]
  Body Weight: 210 g
[2]
  Kidney Function Inulin Clearance: 1.81 mL/min
  Kidney Function Serum Creatinine: 0.65 mg/dL
[3]; 500 µg/disk
  Growth Inhibited Area H17: 0 mm
[3]; 5,000 µg/disk
  Growth Inhibited Area H17: 1 mm
[4]; 500 µg/disk
  Growth Inhibited Area M45: 0 mm
  Growth Inhibited Area M45 - H17: 0 mm
[4]; 5,000 µg/disk
  Growth Inhibited Area M45: 6 mm
  Growth Inhibited Area M45 - H17: 5 mm
[5]
  No. of Reversion Colony TA100: 151 n/plate
[6]
  Blood sugar value measured 10 minutes after the test: 587 mg/dL
  Insuline Value 10 Min.After The Test: 6.16 mµ/ml
  Insuline Value Before The Test: 4.22 mµ/ml
[7]
  LD₅₀ Value Intraperitoneal: 7420 mg/kg
  LD₅₀ Value Oral: 6100 mg/kg
[8]
  Depressing Ratio: 26%
[9]
  No. of Reversion Colony TA98: 6 n/plate
[10]
  TBI (seerum total bilirubin value): 0.34 mg/dL

## O=C(O)c1ccc(NC2O[C@H](CO)[C@@H](O)[C@H](O)[C@H]2O)cc1 (stereo partly drawn) [Compound 10, p-Aminobenzoic acid-N-D-glucoside]
[1]
  Body Weight: 235 g
[2]
  Kidney Function Inulin Clearance: 1.85 mL/min
  Kidney Function Serum Creatinine: 0.65 mg/dL
[3]; 500 µg/disk
  Growth Inhibited Area H17: 0 mm
[3]; 5,000 µg/disk
  Growth Inhibited Area H17: 0 mm
[4]; 500 µg/disk
  Growth Inhibited Area M45: 0 mm
  Growth Inhibited Area M45 - H17: 0 mm
[4]; 5,000 µg/disk
  Growth Inhibited Area M45: 0 mm
  Growth Inhibited Area M45 - H17: 0 mm
[5]
  No. of Reversion Colony TA100: 104 n/plate
[6]
  Blood sugar value measured 10 minutes after the test: 612 mg/dL
  Insuline Value 10 Min.After The Test: 6.02 mµ/ml
  Insuline Value Before The Test: 4.05 mµ/ml
[7]
  LD₅₀ Value Intraperitoneal: > 15000 mg/kg
  LD₅₀ Value Oral: > 15000 mg/kg
[8]
  Depressing Ratio: 26%
[9]
  No. of Reversion Colony TA98: 11 n/plate
[10]
  TBI (seerum total bilirubin value): 0.36 mg/dL

## CC1OC(Nc2ccccc2C(=O)[O-])C(O)C(O)C1O.[Na+] [Compound 20, o-Aminobenzoic acid-N-L-rhamnoside]
[1]
  Body Weight: 233 g
[2]
  Kidney Function Inulin Clearance: 1.95 mL/min
  Kidney Function Serum Creatinine: 0.64 mg/dL
[3]; 500 µg/disk
  Growth Inhibited Area H17: 0 mm
[3]; 5,000 µg/disk
  Growth Inhibited Area H17: 2 mm
[4]; 500 µg/disk
  Growth Inhibited Area M45: 0 mm
  Growth Inhibited Area M45 - H17: 0 mm
[4]; 5,000 µg/disk
  Growth Inhibited Area M45: 6 mm
  Growth Inhibited Area M45 - H17: 4 mm
[5]
  No. of Reversion Colony TA100: 61 n/plate
[6]
  Blood sugar value measured 10 minutes after the test: 576 mg/dL
  Insuline Value 10 Min.After The Test: 6.38 mµ/ml
  Insuline Value Before The Test: 4.34 mµ/ml
[7]
  LD₅₀ Value Intraperitoneal: > 15000 mg/kg
  LD₅₀ Value Oral: 12500 mg/kg
[8]
  Depressing Ratio: 26%
[9]
  No. of Reversion Colony TA98: 9 n/plate
[10]
  TBI (seerum total bilirubin value): 0.31 mg/dL

## O=C(O)c1ccc(NC2OC[C@H](O)[C@H](O)[C@H]2O)cc1 (stereo partly drawn) [Compound 2, p-Aminobenzoic acid-N-L-arabinoside]
[1]
  Body Weight: 220 g
[2]
  Kidney Function Inulin Clearance: 1.81 mL/min
  Kidney Function Serum Creatinine: 0.65 mg/dL
[3]; 500 µg/disk
  Growth Inhibited Area H17: 0 mm
[3]; 5,000 µg/disk
  Growth Inhibited Area H17: 0 mm
[4]; 500 µg/disk
  Growth Inhibited Area M45: 0 mm
  Growth Inhibited Area M45 - H17: 0 mm
[4]; 5,000 µg/disk
  Growth Inhibited Area M45: 0 mm
  Growth Inhibited Area M45 - H17: 0 mm
[5]
  No. of Reversion Colony TA100: 51 n/plate
[6]
  Blood sugar value measured 10 minutes after the test: 588 mg/dL
  Insuline Value 10 Min.After The Test: 6.12 mµ/ml
  Insuline Value Before The Test: 4.02 mµ/ml
[7]
  LD₅₀ Value Intraperitoneal: 10220 mg/kg
  LD₅₀ Value Oral: 10800 mg/kg
[8]
  Depressing Ratio: 26%
[9]
  No. of Reversion Colony TA98: 3 n/plate
[10]
  TBI (seerum total bilirubin value): 0.35 mg/dL
